Data as given in US20230331817A1 (The Regents of the University of California, priority 2020, published 2023).

Tests used:
[1] = system: plasmin induced lysis of clot formed in whole blood; assay: Thromboelastography, plasmin induced clot lysis in whole blood; type: biochemical, human; details: for G / LY30 / LY60 / MA: NHB + […] plasmin
Experimental: Plasmin and CaCl2) were added last to initiate simultaneous clotting and fibrinolysis. […] The thromboelastograph was calibrated each day and each inhibitor concentration was tested in duplicate. TEG Analytical Software (version 4.2.2; Haemonetics Corporation, Braintree, MA) was used to calculate the time to clot initiation (R), maximal clot strength (maximal amplitude (MA), which was directly related to the shear elastic modulus strength, G), and percent lysis 60 minutes after MA (LY60) (42).

[2] = system: HUVEC; type: cell-based, human
Experimental: (§1) Resazurin reduction assay (Fisher Scientific) was used to evaluate the potential cytotoxicity of antifibrinolytic agents toward primary human endothelial cells and skin fibroblasts. Phosphate buffer that was used to dissolve the samples was included as negative control. The assay is based on reduction of the non-fluorescent dye resazurin, to the highly fluorescent resorufin by viable cells. […] Briefly, cells in 96-well cell culture plates were treated with different concentrations of antifibrinolytic compounds (as described above). After 24 hours resazurin reagent was added to each well and the plates were incubated at 37° C. for 4 hours. Fluorescence was measured by the FLUOstar Omega Microplate Reader (BMG Labtech) using an excitation wavelength of 544 nm and an emission wavelength of 590 nm. Each assay was done in duplicate, with three replicates each. The viability was evaluated based on comparison with untreated cells.

[3] = system: primary human dermal skin fibroblasts; assay: Resazurin reduction (alamarBlue) viability assay, skin fibroblasts; type: cell-based
Experimental: as §1

[4] = system: HUVEC; details: 24 hours; 30 μM KD1TM, 30 μM BPTI, 60 mM EACA, 30 mM TXA
Source text: (§2) Primary human pooled umbilical vein endothelial cells (HUVEC) were obtained from ATCC. The cells were maintained in Vascular Cell Basal Medium (ATCC), supplemented with the Endothelial Cell Growth Kit-BBE (ATCC) and Penicillin-Streptomycin-Amphotericin B (ATCC). Primary human dermal skin fibroblasts were obtained from LONZA and maintained in Fibroblast Basal Medium (FBMTM, LONZA), supplemented with a cocktail of growth factors, fetal bovine serum and antibiotics (FGMTM-2 SingleQuots™, LONZA). All cells were maintained in a humidified 5% C02 atmosphere at 37° C. and were passaged once they reached 80% confluence. All experiments were performed with cells in the logarithmic growth phase.
(§3) For toxicity studies, cells were seeded into 96-well or 24-well cell culture plates at 3,500 cells/cm2 and were used for experiments once they reached 80% confluence.
(§4) Cell toxicity and cell death was evaluated with the CellTox™ Green Cytotoxicity Assay (Promega). This assay measures changes in membrane integrity that occur as a result of cell death. The dye used in the system is excluded from viable cells but binds to DNA in compromised cells, which results in a fluorescent signal. We measured cell death in HUVEC and primary fibroblasts treated with antifibrinolytic agents at 4 concentrations (as indicated above) with triplicates per concentration in 24-well plates after 24 hours of exposure. Hoechst (Thermo Fisher Scientific) was used to stain all nuclei. Images of cells were captured using an inverted microscope (Nicon; Edipse T2000 TE). Green fluorescent cells (FITC filter) and Hoechst stained cells (DAPI filter) were counted using Image J software.

[5] = system: primary human dermal skin fibroblasts; details: 24 hours; 30 μM KD1TM, 30 μM BPTI, 60 mM EACA, 30 mM TXA
Source text: as §2, §3, §4

[6] = human, in vivo; cited from earlier work

Compound: NCCCCCC(=O)O [EACA, ε-aminocaproic acid]
- G [1]: 2388.0 ± 49.6 dyn/cm^2
- G ([1]; inhibitor 200 μM): 153.25 ± 9.8 dyn/cm^2
- LY30 ([1]; inhibitor 200 μM): 0%
- LY60 ([1]; inhibitor 200 μM): 0%
- MA ([1]; inhibitor 200 μM): 3.20 ± 0.71 mm
- G ([1]; inhibitor 500 μM): 747.75 ± 14.8 dyn/cm^2
- LY30 ([1]; inhibitor 500 μM): 0%
- LY60 ([1]; inhibitor 500 μM): 0%
- MA ([1]; inhibitor 500 μM): 13.15 ± 0.64 mm
- G ([1]; inhibitor 1000 μM): 1070.1 ± 35.0 dyn/cm^2
- LY30 ([1]; inhibitor 1000 μM): 0%
- LY60 ([1]; inhibitor 1000 μM): 16.8 ± 0.35%
- MA ([1]; inhibitor 1000 μM): 16.40 ± 0.28 mm
- LY30 ([1]; inhibitor 3000 μM): 0%
- LY60 ([1]; inhibitor 3000 μM): 0.6 ± 0.04%
- MA ([1]; inhibitor 3000 μM): 32.60 ± 0.71 mm
- G restored, relative to blood without plasmin ([1]; […] plasmin, 3 mM EACA): ~50%
- MA restored, relative to blood without plasmin ([1]; […] plasmin, 3 mM EACA): ~67%
- HUVEC viability (FIG. 4) [2]: not significantly different from the untreated cells
- Fibroblast cell viability (FIG. 5) [3]: not significantly different from the untreated cells
- HUVEC cytotoxicity, CellTox green (FIG. 7) [4]: only observed in skin fibroblasts
- Fibroblasts cytotoxicity, CellTox green (FIG. 8) [5]: significant toxicity

Compound: Ecallantide
- half-life [6]: ~2 h
